Source: PMC8199613, “Discovery of Novel Small-Molecule Inhibitors of PD-1/PD-L1 Interaction via Structural Simplification Strategy” (Molecules, 2021)
Values after ≈ are worked out from the molar mass of the structure shown. “Also recorded” adds a separate entry of the source.

Tests used:
MDA-MB-231 cells = experiment: MTT non-specific cytotoxicity assay, MDA-MB-231; format: cell-based
Experimental: (§1) Considering that the toxicity of the compound might strongly interfere with the assay if the tested compounds could block PD-1/PD-L1 interaction to activate T cells for killing tumors, we examined their cell toxicities of MDA-MB-231 and Jurkat T cells in MTT assay. […] Furthermore, Jurkat T cells were used to simulate primary T cells for investigating the immune toxicity of the treated compounds with the regular concentrations within 48 h.
(§2) The MDA-MB-231 and Jurkat cell line was provided by the Chinese Academy of Sciences Cell Bank. The cytotoxicity of the test compounds was determined using the MTT assay. Briefly, MDA-MB-231 and Jurkat cells were incubated at 37 °C in a humidified 5% CO2 incubator for 24 h in 96-microwell plates. Then, 100 μL of culture medium containing the test compounds at different concentrations was added to each well and incubated at 37 °C for another 48 h. The MTT was added and incubated for another 4 h, and the optical density was detected with a microplate reader at 570 nm. The IC50 values were calculated according to the dose-dependent curves.

[1] = test system: Hep3B/OS-8/hPD-L1 and CD3+ T cells co-culture; experiment: IFN-γ production in Hep3B/OS-8/hPD-L1 and CD3+ T cell co-culture assay
Water solubility by HPLC = format: physicochemical; conditions: aqueous buffer, thermodynamic from solid, pH 7.4, PBS
Experimental: The aqueous solubility was estimated by HPLC. The HPLC analysis was performed on a Shimadzu LC-20AT machine with a BDS Hypersil C18 column, and the column temperature was at 28 °C. Mobile phase B (100% MeOH) and mobile phase A (100% water) were used in a gradient elution program (0 min: 30% (B), 2 min: 50% (B), 8 min: 95% (B), 14 min: 95% (B), 18 min: 70% (B), 20 min: 30% (B)) with a flow rate of 1.0 mL/min at […]. Methanol was used to configure an accurate compounds concentration to calculate the standard curve. The excess test compound was dissolved in PBS (KH2PO4 0.24 g + KCl 0.2 g + NaCl 8 g + Na2HPO4·12H2O 3.58 g + 1 L water) and then analyzed by HPLC.

hPD-L1 = hPD-L1 (Homo sapiens, UniProt Q9NZQ7); experiment: SPR binding affinity assay (Biacore T200)
Chain of hPD-L1 (Q9NZQ7 19-238 limits assumed): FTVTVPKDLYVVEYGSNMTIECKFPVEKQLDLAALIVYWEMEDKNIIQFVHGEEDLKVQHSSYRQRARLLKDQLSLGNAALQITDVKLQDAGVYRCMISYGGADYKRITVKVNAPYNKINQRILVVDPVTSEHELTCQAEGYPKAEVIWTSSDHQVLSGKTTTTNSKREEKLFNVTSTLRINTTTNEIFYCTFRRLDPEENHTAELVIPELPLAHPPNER
Experimental: To provide definitive evidence of direct binding to PD-L1 with small-molecule inhibitors, an SPR-based binding assay was performed using Biacore T200 instrument, which facilitates measurement of the kinetic parameters of ligand–protein complex formation. In this determination, hPD-L1/Fc was loaded on a Series S Sensor Chip Protein A. A9 and A15, with similar bioactivities in HTRF assay, were gradually subjected to this assay, and their kinetic parameters and the binding affinities were determined with the aid of Biacore evaluation software.
SPR analysis was carried out according to the method described by a previous article. The kinetic analysis for the interaction of small molecules with hPD-L1 was performed on a Biacore T200 (GE Healthcare Bio-sciences, Uppsala, Sweden) using Series S Sensor Chip Protein A (GE Healthcare Bio-sciences, Uppsala, Sweden, catalog # 29139131-AA). Briefly, Fc-hPD-L1 (Acro Biosystems, Cambridge, MA, USA, catalog #PD1-H5258) was diluted using 1 × PBS-P^+ buffer (phosphate buffer 1×, GE Healthcare Bio-sciences, catalog # 28-9950-84, enriched with 0.05% surfactant P20) containing 5% DMSO (Sigma-Aldrich, St. Louis, MO, America, catalog # D4540) and captured as the ligand (i.e., the target of small molecules) on protein A chip surface following Biacore T200 build-in protocol for kinetic/affinity analysis at a concentration of 10 μg/mL. The contact time and flow rates were set as 120 s and 10 μL/min for the ligand capture. Each experiment was performed using a pair of flow cells, one with ligand captured and the other kept as reference. A concentration gradient of analytes was freshly prepared in 1× PBS-P^+ buffer with 5% DMSO with at least five concentrations, and the concentration range was optimized according to different analytes. Analytes could flow through both ligand-captured flow cells and reference flow cells at the same rate (30 μL/min) and contact time (90 s). Solvent correction was included to avoid the impact of DMSO on surface plasmon effect during binding analysis. Extra washing of the flow system using 50% DMSO in 1×PBS-P^+ buffer was allowed to control carry over effects. For the regeneration of surface after each cycle (one-time ligand capture and binding of analyte at a single concentration) was carried out using 10 mM glycine pH 1.5 (GE Healthcare Bio-sciences, Uppsala, Sweden, catalog #BR-1003-54) at a flow rate of 30 μL/min for 30 s. Kinetic analysis was performed at 25 °C. Maximum binding response (Rmax) and equilibrium dissociation […] (KD) values were calculated using Biacore T200 Evaluation software following the 1:1 binding model.

Jurkat T cells = experiment: MTT non-specific cytotoxicity assay, Jurkat; format: cell-based
Experimental: as §1, §2

PD-1/PD-L1 interaction = target: T1, PD-1/PD-L1 interaction (Homo sapiens, UniProt Q9NZQ7); experiment: HTRF-based PD-1/PD-L1 binding assay
T1 construct: purchased Cisbio 64ICP01PEG
T1 sequence (Q9NZQ7 19-238 limits assumed): as above

## COc1nc(-c2cccc(-c3ccccc3F)c2C)ccc1CNCCC(N)=O [Compound A9, 3-(((6-(2′-Fluoro-2-methyl-[1,1′-biphenyl]-3-yl)-2-methoxypyridin-3-yl)methyl)amino)propenamide]
MDA-MB-231 cells; Homo sapiens, MDA-MB-231, 48 h, read-out: EC50 (μM)/MDA-MB-231 Toxicity
  EC50: 11.1 µM
MDA-MB-231 cells; as shown in Table 3
  direct killing of tumor cells: do not directly kill tumor cells
[1]; 72 h co-culture, ELISA, dose response
  IFN-γ production / release: promote the dose-dependent release of IFN-γ; also recorded: significantly promote the production of IFN-γ in a dose-dependent manner; also recorded: potently induces the release of IFN-γ
[1]; A9 at 5 μM
  promoting effect on IFN-γ production compared with BMS-202: significantly higher than that of BMS-202
[1]; A9 at 5 μM vs Keytruda at 5 μg/mL
  promoting effect on IFN-γ production compared with Keytruda: comparable promoting effect on production of INF-γ; also recorded: comparable to that of Keytruda at 5 μg/mL
Water solubility by HPLC
  solubility: 126 µg/mL (≈ 321 µM)
hPD-L1; LE = -1.35log KD/Nheavy atoms (SPR KD)
  LE: 0.40
hPD-L1; SPR KD ratio
  KD compared with that of A15: 5 fold
hPD-L1; SPR association rate, read-out: Ka (M-1s-1) / Kon
  kon: 538000 M⁻¹ s⁻¹
hPD-L1; SPR dissociation rate, read-out: Kd (s-1) / Koff
  koff: 0.00196 s⁻¹
hPD-L1; SPR, 25 °C, 1:1 binding model
  Kd: 0.00364 µM
Jurkat T cells; Homo sapiens, Jurkat, MTT, 48 h, read-out: EC50 (μM)/Jurkat Toxicity
  EC50: 7.6 µM
Jurkat T cells; regular concentrations within 48 h
  immune toxicity in Jurkat T cells: lower cell toxicity
PD-1/PD-L1 interaction; HTRF IC50 ratio
  increase in activity as compared with A4: more than 23 fold
PD-1/PD-L1 interaction; HTRF, two independent experiments
  IC50: 0.00093 µM
PD-1/PD-L1 interaction; LE = −1.35 logIC50/Nheavy atoms (HTRF IC50)
  LE: 0.43
